Measurements: US20250051338A1, “TYK2 DEGRADERS AND USES THEREOF” (Kymera Therapeutics, Inc., priority 2021, published 2025)

Tests used:
Assay type in all cases: cell-based
[1] = target: T1, TYK2 (Homo sapiens, UniProt P29597); experiment: TYK2 degradation MSD assay in OCI-LY10 cells; design: endogenous in cells; host or cells: EBV-B cells; settings: 4 to 24 hours incubation, read-out: TYK2 MSD DC50 rating in OCI-LY10
How it was run: (§1)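 DC50 values reflect dose-dependent decrease of TYK2 protein, read by MSD after cells were exposed to compound (top 1 to 10 μM, 1:3, 9 doses) for 4 to 24 hours at 37° C.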

[2] = target: T1, TYK2; experiment: TYK2 degradation MSD assay in human PBMC cells; design: endogenous in cells; host or cells: human PBMC; settings: 4 to 24 hours incubation, read-out: TYK2 MSD DC50 rating in human PBMC
How it was run: as §1

[3] = target: T1, TYK2; experiment: TYK2 degradation MSD assay in EBV-B cells; design: endogenous in cells; host or cells: EBV-B cells; settings: 4 to 24 hours incubation, read-out: TYK2 MSD DC50 rating in EBV-B
How it was run: as §1

T1 sequence (P29597 whole entry): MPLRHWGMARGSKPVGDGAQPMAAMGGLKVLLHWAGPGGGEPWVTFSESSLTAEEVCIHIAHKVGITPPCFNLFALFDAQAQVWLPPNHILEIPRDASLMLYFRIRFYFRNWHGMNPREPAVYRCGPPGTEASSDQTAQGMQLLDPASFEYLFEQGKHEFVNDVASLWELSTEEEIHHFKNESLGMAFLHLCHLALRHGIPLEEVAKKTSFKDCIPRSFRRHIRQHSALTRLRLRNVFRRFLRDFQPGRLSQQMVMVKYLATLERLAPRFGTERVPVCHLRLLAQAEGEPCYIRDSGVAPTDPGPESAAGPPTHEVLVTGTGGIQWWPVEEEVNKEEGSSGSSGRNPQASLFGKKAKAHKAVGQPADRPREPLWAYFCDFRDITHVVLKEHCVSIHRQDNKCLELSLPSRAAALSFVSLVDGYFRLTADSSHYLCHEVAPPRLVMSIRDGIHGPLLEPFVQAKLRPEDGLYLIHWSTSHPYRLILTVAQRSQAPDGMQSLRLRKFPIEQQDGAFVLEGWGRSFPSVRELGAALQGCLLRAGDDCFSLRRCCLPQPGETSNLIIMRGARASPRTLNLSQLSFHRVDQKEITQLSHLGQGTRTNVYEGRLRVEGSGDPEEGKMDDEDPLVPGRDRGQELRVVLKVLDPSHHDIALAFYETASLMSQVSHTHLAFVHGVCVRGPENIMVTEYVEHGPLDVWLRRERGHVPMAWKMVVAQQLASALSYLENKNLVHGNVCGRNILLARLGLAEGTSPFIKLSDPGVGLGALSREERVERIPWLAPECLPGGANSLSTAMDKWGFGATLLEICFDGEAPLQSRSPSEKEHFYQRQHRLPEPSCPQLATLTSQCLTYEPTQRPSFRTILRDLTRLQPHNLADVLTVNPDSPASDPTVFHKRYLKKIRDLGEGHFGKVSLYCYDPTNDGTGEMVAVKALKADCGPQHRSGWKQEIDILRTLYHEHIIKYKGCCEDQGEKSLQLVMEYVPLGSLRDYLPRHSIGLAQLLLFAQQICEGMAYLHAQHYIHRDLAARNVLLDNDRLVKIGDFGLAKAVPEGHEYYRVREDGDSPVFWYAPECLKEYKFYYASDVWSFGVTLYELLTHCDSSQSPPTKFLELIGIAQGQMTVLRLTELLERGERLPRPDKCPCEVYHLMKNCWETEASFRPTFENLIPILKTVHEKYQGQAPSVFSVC

DC50 [1]	DC50 [2]	DC50 [3]	Compound
1 to 10 nM	> 100 nM	> 100 nM	CNc1cc(N2CCc3c(-c4cc(CN5CCN(c6ccc(-c7ccc8c(c7)n(C)c(=O)n8C7CCC(=O)NC7=O)cc6)CC5)ccn4)cccc32)nn2c(C(=O)N[C@@H]3C[C@@H]3F)cnc12 (stereo partly drawn) [Example K658]
1 to 10 nM	> 100 nM	> 100 nM	CNc1cc(Nc2cccnc2OCC2CCN(C3CCN(c4ccc5c(c4)n(C)c(=O)n5C4CCC(=O)NC4=O)CC3)CC2)nn2c(C(=O)NC3CC3F)cnc12 (stereo not drawn) [Example K659]
< 1 nM	> 100 nM	> 100 nM	CNc1cc(Nc2cccc(-c3ccc(CN4CCC(N5CCN(c6ccc7c(c6)n(C)c(=O)n7C6CCC(=O)NC6=O)CC5)C(F)(F)C4)cn3)c2OC)nn2c(C(=O)NC3CC3F)cnc12 (stereo not drawn) [Example K660]
< 1 nM	< 1 nM	> 100 nM	CNC(=O)c1cnc(Nc2ccc(CN3CCC(N(C)c4cccc5c4n(C)c(=O)n5C4CCC(=O)NC4=O)CC3)cn2)cc1Nc1cccc(-c2ncc(F)cn2)c1OC (stereo not drawn) [Example K700]
< 1 nM	< 1 nM	> 100 nM	CNC(=O)c1cnc(Nc2ccc(CN3CCN(CC#Cc4ccc5c(c4)n(C)c(=O)n5C4CCC(=O)NC4=O)CC3)cn2)cc1Nc1cccc(-c2ncc(F)cn2)c1OC (stereo not drawn) [Example K701]
> 100 nM	> 100 nM	1 to 10 nM	CNC(=O)c1cnc(Nc2ccc(N3CCN(c4cccc5c4n(C)c(=O)n5C4CCC(=O)NC4=O)CC3)cn2)cc1Nc1cccc(-c2ncc(F)cn2)c1OC (stereo not drawn) [Example K702]
> 100 nM	> 100 nM	< 1 nM	CNC(=O)c1cnc(Nc2ccc(C3CN(Cc4cccc5c4n(C)c(=O)n5C4CCC(=O)NC4=O)C3)cn2)cc1Nc1cccc(-c2ncc(F)cn2)c1OC (stereo not drawn) [Example K703]
< 1 nM	> 100 nM	< 1 nM	CNC(=O)c1cnc(Nc2ccc(CN(C)C3CCN(c4cccc5c4n(C)c(=O)n5C4CCC(=O)NC4=O)CC3)cn2)cc1Nc1cccc(-c2ncc(F)cn2)c1OC (stereo not drawn) [Example K704]
> 100 nM	> 100 nM	< 1 nM	CNC(=O)c1cnc(Nc2ccc(CN3CCC(N(C)c4cccc5c4n(C)c(=O)n5C4CCC(=O)NC4=O)C3)cn2)cc1Nc1cccc(-c2ncc(F)cn2)c1OC (stereo not drawn) [Example K705]
> 100 nM	> 100 nM	> 100 nM	CNC(=O)c1cnc(Nc2ccc(C(=O)NCCCCc3ccc4c(c3)n(C)c(=O)n4C3CCC(=O)NC3=O)cn2)cc1Nc1ccccc1OC (stereo not drawn) [Example K706]
> 100 nM	> 100 nM	1 to 10 nM	CNC(=O)c1cnc(Nc2ccc(C3CN(Cc4ccc5c(c4)n(C)c(=O)n5C4CCC(=O)NC4=O)C3)cn2)cc1Nc1cccc(-c2ncc(F)cn2)c1OC (stereo not drawn) [Example K707]
> 100 nM	> 100 nM	< 1 nM	CNC(=O)c1cnc(Nc2ccc(CN3CCC(OCC#Cc4ccc5c(c4)n(C)c(=O)n5C4CCC(=O)NC4=O)CC3)cn2)cc1Nc1cccc(-c2ncc(F)cn2)c1OC (stereo not drawn) [Example K708]
> 100 nM	> 100 nM	1 to 10 nM	CCNC(=O)c1cnc(Nc2cc(CN3CCN(c4ccc5c(c4)n(C)c(=O)n5C4CCC(=O)NC4=O)CC3)ccn2)cc1Nc1cccc(-c2ncc(F)cn2)c1OC (stereo not drawn) [Example K709]
> 100 nM	> 100 nM	< 1 nM	[2H]C([2H])([2H])NC(=O)c1nnc(Nc2ccc(C(=O)N(C)C3CCN(c4cccc5c4n(C)c(=O)n5C4CCC(=O)NC4=O)CC3)cn2)cc1Nc1cccc(F)c1OC (stereo not drawn) [Example K710]
> 100 nM	> 100 nM	> 100 nM	[2H]C([2H])([2H])NC(=O)c1nnc(Nc2ccc(CN3CCN(c4ccc5c(c4)n(C)c(=O)n5C4CCC(=O)NC4=O)CC3)cn2)cc1Nc1cccc(F)c1OC (stereo not drawn) [Example K711]
> 100 nM	> 100 nM	< 1 nM	[2H]C([2H])([2H])NC(=O)c1nnc(Nc2ccc(CN(C)CC3CCN(c4ccc5c(c4)n(C)c(=O)n5C4CCC(=O)NC4=O)CC3)cn2)cc1Nc1cccc(F)c1OC (stereo not drawn) [Example K712]
